Like-named read-outs stand apart in the source and are kept apart here. Marks after values point to notes of the source that are not given here.
What was measured:
[1] = cited from earlier work
[2] = 25 °C, cited from earlier work
[3] = cited from earlier work; remark: listed apart in the source
[4] = parameters: method as in earlier work; settings: stability constant of the Na+ complex; cited from earlier work
[5] = cited from earlier work; remark: listed apart in the source
[6] = cited from earlier work; for pGd: [Gd^3+]tot = 1 µM, [L]tot = 10 µM; for pGd / logK^c GdL: pH 7.4, calculated from literature constants; for *logKGd(H2L): diprotonated out-of-cage intermediate
[7] = cited from earlier work; remark: listed apart in the source
[8] = Biodistribution and in vivo dynamic T1-weighted MRI; parameters: species or system A/J healthy mice; settings: 0.1 mmol Gd/kg i.v.
Procedure: Dynamic T 1‐weighted MRI on twelve A/J healthy mice was used to compare the biodistribution of ([Gd(ent‐L2)] and [Gd(BT‐DO3A)] (Gadovist), n = 6 animals each), administered at 0.1 mmol Gd/kg. The MRI monitored the distribution within abdominal tissues for up to 1 h post‐administration MRI images and the pharmacokinetic curves are shown in Figure 6 .
All the procedures and the experiments were conducted according to the national and international laws on experimental animal research (L.D. 26/2014; Directive 2010/63/EU) and under a specific Italian Ministerial Authorization (project research number 46/2015‐PR). Twelve A/J healthy mice (females, 6–7 weeks old, supplied by Envigo RMS S.r.l.) were housed in a controlled environment (22°C, 55% humidity, 15–20 air changes/hour, 12‐h light/dark cycle) with ad libitum access to VRF1 (P) certified pellets and filtered water. To minimize discomfort, the animals were socially housed with enrichment items. Veterinary care was available throughout the study to alleviate any potential pain or distress following procedures. […] The animals were randomly assigned to two experimental groups (n = 6 each, with sample size confirmed via GPower) and underwent to Magnetic Resonance Imaging (MRI) experiments performed using a BioSpec 47/30 preclinical scanner (Bruker Biospin, Ettlingen, Germany) operating at […] (i.e., at a proton Larmor frequency of 125 MHz) and equipped with two‐channel 35 mm RF volume coil. During MRI experiments, all the animals were anaesthetized with isoflurane gas (≈1%) in O2. Anaesthesia was maintained by adjustment of gas level as a function of breath rate. Before injection of each test article, T 1‐weighted spin echo sequences were acquired on the animal in order to check the position of the animal. A series of T 1‐weighted 3D gradient echoscans (repetition time = 50 ms, flip angle = 50°, echo time = 2.8 ms, number of averages = 2, matrix size (3D) = 192 × 192 × 8, field of view = 2.5 × 2.5 × 1.2 cm, acquisition time = 154 s) were then acquired before and after the intravenous administration of a 50 mM saline solution (0.9%) of [Gd(ent‐L2)] (n = 6 mice) and [Gd(BT‐DO3A)] (Gadovist, Bayer Schering, Germany) (n = 6 mice) at an injection rate of ≈2 mL/min through a catheter placed in the tail vein of the animal. Both [Gd(ent‐L2)] and [Gd(BT‐DO3A)] were administered at a dose of 0.1 mmol Gd/kg corresponding to an administration volume of 2 mL kg^−1. The kinetics of the Gd(III)‐complexes was followed up to 60 min post‐injection. After imaging was performed, the mouse was removed from the scanner and returned to the Animal Facility room. At the end of the study all animals were sacrificed by overdose of anaesthesia and cervical dislocation. Unblinded image analysis was performed by positioning the region of interest (ROIs) over liver, kidney, muscle, and blood vessel. ROIs positioning and signal quantification was performed by using a home‐developed plugin, running on Image J.^[ [51] ^]
Signal enhancement (Enh) was calculated using the formula: Enh = 100×(SignalpostCA ‐SignalpreCA)/SignalpreCA, where SignalpreCA and SignalpostCA denote the MR signal before and after administration of contrast agents, respectively. Data were presented as mean ± standard deviation (SD). The sample size (n = 6 per group) was determined a priori using GPower software to ensure adequate statistical power. The Levene's test was employed to assess the homogeneity of variances among groups. For comparisons where homogeneity of variance was confirmed, a one‐way ANalysis Of VAriance (ANOVA) was applied to test the null hypothesis that treatment groups originate from the same distribution. Post‐hoc pairwise multiple comparisons were performed using Tukey's method when significant differences were detected. Statistical analyses and data visualization were conducted using Mathematica (Wolfram, USA), while summary statistics (mean, SD, and standard error) were calculated using Microsoft Excel (USA). […]

[9] = cited from earlier work; for ^298K r 1 [1.5 T] / r 1 ^310K [1.5 T]: water; for τ R: Table 2

SMILES: O=C(O)CN1CCN(CC(=O)O)CCN(CC(=O)O)CCN(CC(=O)O)CC1 [DOTA]
- logK CaL ([1]; 0.1 M KCl): 16.37
- logKCaHL ([1]; 0.1 M KCl): 3.60
- logK1^H ([2]; 0.1 M KCl): 11.14
- logK2^H ([2]; 0.1 M KCl): 9.69
- logK3^H ([2]; 0.1 M KCl): 4.85
- logK4^H ([2]; 0.1 M KCl): 3.95
- ΣlogKi^H ([2]; 0.1 M KCl): 29.63
- logK1^H ([2]; 0.1 M Me4NCl): 11.45
- logK2^H ([2]; 0.1 M Me4NCl): 9.64
- logK3^H ([2]; 0.1 M Me4NCl): 4.60
- logK4^H ([2]; 0.1 M Me4NCl): 4.11
- logK5^H ([2]; 0.1 M Me4NCl): 2.29
- ΣlogKi^H ([2]; 0.1 M Me4NCl): 32.09
- logK1^H ([2]; 0.15 M NaCl): 9.14
- logK2^H ([2]; 0.15 M NaCl): 9.21
- logK3^H ([2]; 0.15 M NaCl): 4.48
- logK4^H ([2]; 0.15 M NaCl): 4.03
- logK5^H ([2]; 0.15 M NaCl): 1.99^d)
- ΣlogKi^H ([2]; 0.15 M NaCl): 28.85
- k d at pH = 7.4 ([3]; pH 7.4, 0.15 M NaCl, 25 °C): 7.3 × 10^−14 s^−1
- logKNa(L) [4]: 4.38
- logK ZnL ([5]; 0.1 M KCl): 18.7
- logKZnH2L ([5]; 0.1 M KCl): 3.96
- logKZnHL ([5]; 0.1 M KCl): 5.33
- logKGdHL ([6]; 0.1 M KCl): 1.15
- logK GdL ([6]; 0.1 M Me4NCl, 25 °C): 25.6
- logK GdL ([6]; 0.1 M NaCl, 25 °C): 24.7
- pGd ([6]; 0.1 M Me4NCl, 25 °C): 20.24
- pGd ([6]; 0.1 M NaCl, 25 °C): 22.09
- *logKGd(H2L) ([6]; 0.15 M NaCl, 25 °C): 6.07^f)
- logK^c GdL ([6]; 0.1 M Me4NCl, 25 °C): 19.29
- logK^c GdL ([6]; 0.1 M NaCl, 25 °C): 21.14
- logK CuL ([7]; 0.1 M KCl): 22.72
- logKCuH2L ([7]; 0.1 M KCl): 3.92
- logKCuHL ([7]; 0.1 M KCl): 4.45

SMILES: CC(O)CN1CCN(CC(=O)O)CCN(CC(=O)O)CCN(CC(=O)O)CC1 (stereo not shown) [HP‐DO3A]
- logK CaL ([1]; 0.1 M Me4NCl, 25 °C): 14.83
- logK1^H ([2]; 0.1 M Me4NCl): 11.96
- logK2^H ([2]; 0.1 M Me4NCl): 9.43
- logK3^H ([2]; 0.1 M Me4NCl): 4.30
- logK4^H ([2]; 0.1 M Me4NCl): 3.26
- ΣlogKi^H ([2]; 0.1 M Me4NCl): 28.95
- k d at pH = 7.4 ([3]; pH 7.4, 0.1 M NaCl, 25 °C): 1.0 × 10^−11 s^−1
- k d at pH = 7.4 ([3]; pH 7.4, 0.15 M NaCl, 25 °C): 1.2 × 10^−11 s^−1
- logK ZnL ([5]; 0.1 M Me4NCl, 25 °C): 19.37
- logKZnHL ([5]; 0.1 M Me4NCl): 3.7
- logK GdL ([6]; 0.1 M Me4NCl, 25 °C): 23.8
- logKGdHL ([6]; 0.1 M Me4NCl): 1.10
- logKGdLH-1 ([6]; 0.15 M NaCl, 25 °C): 11.36^f)
- pGd ([6]; 0.1 M Me4NCl): 18.16
- *logKGd(H2L) ([6]; 0.15 M NaCl, 25 °C): 5.10^f)
- logK^c GdL ([6]; 0.1 M Me4NCl): 17.21
- logK CuL ([7]; 0.1 M Me4NCl, 25 °C): 22.84
- logKCuH2L ([7]; 0.1 M Me4NCl): 2.3
- logKCuHL ([7]; 0.1 M Me4NCl): 3.72

SMILES: O=C(O)CN1CCN(CC(=O)O)Cc2cccc(n2)CN(CC(=O)O)CC1 [PCTA, 3,6,9,15‐tetraazabicyclo[9.3.1]pentadeca‐1(15),11,13‐triene‐3,6,9 triacetic acid]
- logK CaL ([1]; 1.0 M KCl): 12.72
- logKCaHL ([1]; 1.0 M KCl): 3.79
- logK1^H ([2]; 0.15 M NaCl): 9.97
- logK2^H ([2]; 0.15 M NaCl): 6.73
- logK3^H ([2]; 0.15 M NaCl): 3.22
- logK4^H ([2]; 0.15 M NaCl): 1.40
- ΣlogKi^H ([2]; 0.15 M NaCl): 21.32
- logK1^H ([2]; 1.0 M KCl): 11.36
- logK2^H ([2]; 1.0 M KCl): 7.35
- logK3^H ([2]; 1.0 M KCl): 3.83
- logK4^H ([2]; 1.0 M KCl): 2.12
- ΣlogKi^H ([2]; 1.0 M KCl): 25.95
- logK ZnL ([5]; 1.0 M KCl): 20.48
- logKZnHL ([5]; 1.0 M KCl): 3.10
- logK GdL ([6]; 1.0 M KCl): 20.39
- logKGdLH-1 ([6]; 1.0 M KCl): 11.10
- pGd ([6]; 1.0 M KCl): 17.11
- *logKGd(H2L) ([6]; 1.0 M KCl): 3.12
- logK^c GdL ([6]; 1.0 M KCl): 16.15
- logK CuL ([7]; 1.0 M KCl): 18.79
- logKCuHL ([7]; 1.0 M KCl): 3.58

SMILES: O=C([O-])CN1CCN(CC(=O)[O-])CCN(C(CO)C(O)CO)CCN(CC(=O)[O-])CC1.[Gd+3] (stereo not shown) [[Gd(BT‐DO3A)], reference compound]
- average maximum signal enhancement in the liver ([8]; 3 T, n = 6): ≈ 110%
- wash-in and wash-out kinetics ([8]; up to 1 h post-administration): rapid wash‐in and wash‐out
- decrease in signal enhancement in the blood compartment ([8]; within 30 min, 3 T): ≥ 50%
- k1 ([3]; 25 °C): 3.4e-05 M⁻¹ s⁻¹
- k d at pH = 7.4 ([3]; pH 7.4, 0.1 M NaCl, 25 °C): 1.35×10^-12 s^−1

SMILES: O=C([O-])CN1CCN(CC(=O)[O-])CCN(CC(=O)[O-])CCN(CC(=O)[O-])CC1.[Gd+3] [[Gd(DOTA)]^−]
- k1 ([3]; 0.15 M NaCl, 25 °C): 1.8e-06 M⁻¹ s⁻¹
- K^HGd(HL) ([3]; 3.0 M NaClO4, 25 °C): 14^d) M^-1
- k1 ([3]; 25 °C): 8.4e-06 M⁻¹ s⁻¹
- k d at pH = 7.4 ([3]; pH 7.4, 0.15 M NaCl, 25 °C): 7.3×10^-14 s^−1
- k d at pH = 7.4 ([3]; pH 7.4, 25 °C): 3.3×10^-14 s^−1
- k0 ([3]; spontaneous dissociation, 0.15 M NaCl, 25 °C): 6.7×10^-11 b) s^-1
- ^298K r 1 [1.5 T] [9]: 4.2 mM⁻¹ s⁻¹
- r 1 ^310K [1.5 T] [9]: 3.3 mM⁻¹ s⁻¹
- τ R [9]: 90 ps
- q [9]: 1
- τ M1 [9]: 208 ns

SMILES: O=C([O-])CN1CCN(CC(=O)[O-])Cc2cccc(n2)CN(CC(=O)[O-])CC1.[Gd+3] [[Gd(PCTA)]]
- ^298K r 1 [1.5 T] [9]: 6.4 mM⁻¹ s⁻¹
- r 1 ^310K [1.5 T] [9]: 4.9 mM⁻¹ s⁻¹
- τ R [9]: 63 ps
- q [9]: 2
- τ M1 [9]: 151 ns
- τ M2 [9]: 36 ns

— paper PMC11984905, “Chiral Switch of Gadopiclenol: New Standards in MRI Probes” (Advanced Science, 2025)
